Laboratory results as given in the supplement of paper PMC4862054.
“And” between values parts separate entries of the source, which are not always exact repeats. Identical values can stand only once.

How the values were obtained:
Assay in all cases: normalised viability (% of control), CellTiter-Blue; higher = more viable cells (about 100 = DMSO control)
Settings in all cases: incubation time: 72 h
Hs578T = test system: Hs578T
In short: (§1)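 Compound dissolved in 5 µl medium was pre-loaded into 384-well plates, and breast cancer cell lines in 20 µl suspension were seeded on top and incubated 72 h. After adding 2.5 µl CellTiter-Blue reagent for 2 h at 37 °C, fluorescence was read at 560/590 nm. Plates were normalised to vehicle (100) and a positive kill control (0), with Z'-factor quality control. Each value is normalised viability at a single listed concentration from the series.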

MDA-MB-468 = test system: MDA-MB-468
In short: as §1

CAL-51 [1] = test system: CAL-51
In short: as §1

HCC1937 [2] = test system: HCC1937
In short: as §1

SK-BR-3 [3] = test system: SK-BR-3
In short: as §1

CAL-120 = test system: CAL-120
In short: as §1

MDA-MB-231 [4] = test system: MDA-MB-231
In short: as §1

DU-4475 [5] = test system: DU-4475
In short: as §1

CAL-85-1 [6] = test system: CAL-85-1
In short: as §1

BT-474 = test system: BT-474
In short: as §1

HDQ-P1 [7] = test system: HDQ-P1
In short: as §1

MFM-223 [8] = test system: MFM-223
In short: as §1

MDA-MB-436 = test system: MDA-MB-436
In short: as §1

BT-549 [9] = test system: BT-549
In short: as §1

HCC1599 [10] = test system: HCC1599
In short: as §1

CAL-51 [11] = test system: CAL-51; remark: listed apart in the source
Method: (§2)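 DSRT, CellTiter-Blue viability, 72 h incubation. Signal is normalised to DMSO and benzethonium chloride controls. Value is the normalised response at dose 7.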

DU-4475 [12] = test system: DU-4475; remark: listed apart in the source
Method: as §2

CAL-85-1 [13] = test system: CAL-85-1; remark: listed apart in the source
Method: as §2

CAL-148 [14] = test system: CAL-148
Method: as §2

HDQ-P1 [15] = test system: HDQ-P1; remark: listed apart in the source
Method: as §2

MDA-MB-453 [16] = test system: MDA-MB-453
Method: as §2

CAL-51 [17] = test system: CAL-51; remark: listed apart in the source
In short: as §1

HCC1937 [18] = test system: HCC1937; remark: listed apart in the source
In short: as §1

SK-BR-3 [19] = test system: SK-BR-3; remark: listed apart in the source
In short: as §1

DU-4475 [20] = test system: DU-4475; remark: listed apart in the source
In short: as §1

CAL-148 [21] = test system: CAL-148; remark: listed apart in the source
In short: as §1

HDQ-P1 [22] = test system: HDQ-P1; remark: listed apart in the source
In short: as §1

MFM-223 [23] = test system: MFM-223; remark: listed apart in the source
In short: as §1

BT-549 [24] = test system: BT-549; remark: listed apart in the source
In short: as §1

HCC1599 [25] = test system: HCC1599; remark: listed apart in the source
In short: as §1

MDA-MB-453 [26] = test system: MDA-MB-453; remark: listed apart in the source
In short: as §1

HCC1143 [27] = test system: HCC1143
In short: as §1

HCC1143 [28] = test system: HCC1143; remark: listed apart in the source
In short: as §1

MDA-MB-231 [29] = test system: MDA-MB-231; remark: listed apart in the source
In short: as §1

In the case of `CO[C@H]1C[C@@H]2CC[C@@H](C)[C@@](O)(O2)C(=O)C(=O)N2CCCC[C@H]2C(=O)O[C@H]([C@H](C)C[C@@H]2CC[C@@H](OCCO)[C@H](OC)C2)CC(=O)[C@H](C)/C=C(\C)[C@@H](O)[C@@H](OC)C(=O)[C@H](C)C[C@H](C)/C=C/C=C/C=C/1C` [Everolimus], the normalised viability (Hs578T; 1000 nM) is reported as 53.2% and 41.5%, the normalised viability (MDA-MB-468; 1000 nM) is reported as 56.8% and 64.2% and the normalised viability (CAL-51 [1]; 10 nM) is reported as 39.8% and 39.5%. The normalised viability (HCC1937 [2]; 1000 nM) was 45.8% and 46.6%, the normalised viability (SK-BR-3 [3]; 1000 nM) was 55.1% and 36.7% and the normalised viability (CAL-120; 1000 nM) was 53.2% and 38.1%. The normalised viability (MDA-MB-231 [4]; 1000 nM) was 73.9% and 77.5%, the normalised viability (DU-4475 [5]; 10 nM) was 64.3% and 57.3% and the normalised viability (CAL-85-1 [6]; 10 nM) was 68.8% and 61.3%. For the same compound, the normalised viability (BT-474; 1000 nM) was 65% and 59.1%, the normalised viability (HDQ-P1 [7]; 10 nM) was 79.4% and 60.5% and the normalised viability (MFM-223 [8]; 1000 nM) was 51.6% and 26.8%. The normalised viability (MDA-MB-436; 1000 nM) was 93.8% and 71.5%, the normalised viability (BT-549 [9]; 1000 nM) was 56.4% and 46.6% and the normalised viability (HCC1599 [10]; 1000 nM) was 86.7% and 68.9%. The normalised viability (CAL-51 [11]; 100 nM) was 36.9% and 38%, the normalised viability (DU-4475 [12]; 100 nM) was 49.9% and 56% and the normalised viability (CAL-85-1 [13]; 100 nM) was 61.3% and 49.3%. For the same compound, the normalised viability (CAL-148 [14]; 100 nM) was 42% and 40.4%, the normalised viability (HDQ-P1 [15]; 100 nM) was 72.6% and 57.6% and the normalised viability (MDA-MB-453 [16]; 100 nM) was 29.1% and 22.3%. For the same compound, the normalised viability (CAL-51 [17]; 0.3 nM) was 89.6% and 89.8%, the normalised viability (HCC1937 [18]; 1 nM) was 52.2% and 56.6% and the normalised viability (SK-BR-3 [19]; 1 nM) was 80.9% and 64.3%. For the same compound, the normalised viability (DU-4475 [20]; 0.3 nM) was 86.3% and 104%, the normalised viability (CAL-148 [21]; 0.3 nM) was 77.8% and 72.2% and the normalised viability (HDQ-P1 [22]; 0.3 nM) was 84.7% and 79.8%. For the same compound, the normalised viability (MFM-223 [23]; 1 nM) was 55.5% and 51.7%, the normalised viability (BT-549 [24]; 1 nM) was 64.4% and 54.3% and the normalised viability (HCC1599 [25]; 1 nM) was 107% and 111%. The normalised viability (MDA-MB-453 [26]; 0.3 nM) was 71.9% and 70%.
In the case of `CCCCCCCCc1ccc(CCC(N)(CO)CO)cc1` [Fingolimod], the normalised viability (Hs578T; 10000 nM) is reported as 2.92%, the normalised viability (HCC1143 [27]; 10000 nM) is reported as 69.5% and the normalised viability (MDA-MB-468; 10000 nM) is reported as 0.62%. For the same compound, the normalised viability (CAL-51 [1]; 100 nM) was 111%, the normalised viability (HCC1937 [2]; 10000 nM) was 2.06% and the normalised viability (SK-BR-3 [3]; 10000 nM) was 3.17%. The normalised viability (CAL-120; 10000 nM) was 2.23%, the normalised viability (MDA-MB-231 [4]; 10000 nM) was 0.68% and the normalised viability (DU-4475 [5]; 100 nM) was 107%. For the same compound, the normalised viability (CAL-85-1 [6]; 100 nM) was 96.6%, the normalised viability (BT-474; 10000 nM) was 2.28% and the normalised viability (HDQ-P1 [7]; 100 nM) was 111%. It also gave a normalised viability (MFM-223 [8]; 10000 nM) of 9.42%, a normalised viability (MDA-MB-436; 10000 nM) of 4.17% and a normalised viability (BT-549 [9]; 10000 nM) of 8.23%. It also gave a normalised viability (HCC1599 [10]; 10000 nM) of 128%, a normalised viability (CAL-51 [11]; 1000 nM) of 112% and a normalised viability (DU-4475 [12]; 1000 nM) of 109%. The normalised viability (CAL-85-1 [13]; 1000 nM) was 93.4%, the normalised viability (CAL-148 [14]; 1000 nM) was 96.3% and the normalised viability (HDQ-P1 [15]; 1000 nM) was 110%. For the same compound, the normalised viability (MDA-MB-453 [16]; 1000 nM) was 103%, the normalised viability (HCC1143 [28]; 10 nM) was 80.8% and the normalised viability (CAL-51 [17]; 3 nM) was 119%. The normalised viability (HCC1937 [18]; 10 nM) was 116%, the normalised viability (SK-BR-3 [19]; 10 nM) was 106% and the normalised viability (MDA-MB-231 [29]; 10 nM) was 94.8%. The normalised viability (DU-4475 [20]; 3 nM) was 103%, the normalised viability (CAL-148 [21]; 3 nM) was 85.7% and the normalised viability (HDQ-P1 [22]; 3 nM) was 116%. The normalised viability (MFM-223 [23]; 10 nM) was 92.5%, the normalised viability (BT-549 [24]; 10 nM) was 94% and the normalised viability (HCC1599 [25]; 10 nM) was 88.3%. For the same compound, the normalised viability (MDA-MB-453 [26]; 3 nM) was 114%.
`Cc1cc2c(C(C)C)c(O)c(O)c(C=O)c2c(O)c1-c1c(C)cc2c(C(C)C)c(O)c(O)c(C=O)c2c1O` [Gossypol] showed a normalised viability (Hs578T; 100000 nM) of 1.54%, a normalised viability (HCC1143 [27]; 100000 nM) of 15.7% and a normalised viability (MDA-MB-468; 100000 nM) of 2.31%. It also gave a normalised viability (CAL-51 [1]; 1000 nM) of 92.1%, a normalised viability (HCC1937 [2]; 100000 nM) of 6.06% and a normalised viability (SK-BR-3 [3]; 100000 nM) of 1.49%. The normalised viability (CAL-120; 100000 nM) was 3.6%, the normalised viability (MDA-MB-231 [4]; 100000 nM) was 5.74% and the normalised viability (DU-4475 [5]; 1000 nM) was 113%. The normalised viability (CAL-85-1 [6]; 1000 nM) was 87.7%, the normalised viability (BT-474; 100000 nM) was 20.4% and the normalised viability (HDQ-P1 [7]; 1000 nM) was 128%. It also gave a normalised viability (MFM-223 [8]; 100000 nM) of 4.14%, a normalised viability (MDA-MB-436; 100000 nM) of 1.2% and a normalised viability (BT-549 [9]; 100000 nM) of 2.19%. For the same compound, the normalised viability (HCC1599 [10]; 100000 nM) was 4.74%, the normalised viability (CAL-51 [11]; 10000 nM) was 60.5% and the normalised viability (DU-4475 [12]; 10000 nM) was 2.82%. For the same compound, the normalised viability (CAL-85-1 [13]; 10000 nM) was 45.8%, the normalised viability (CAL-148 [14]; 10000 nM) was 70.7% and the normalised viability (HDQ-P1 [15]; 10000 nM) was 52.5%. It also gave a normalised viability (MDA-MB-453 [16]; 10000 nM) of 18.4%, a normalised viability (HCC1143 [28]; 100 nM) of 115% and a normalised viability (CAL-51 [17]; 30 nM) of 97.1%. For the same compound, the normalised viability (HCC1937 [18]; 100 nM) was 116%, the normalised viability (SK-BR-3 [19]; 100 nM) was 106% and the normalised viability (MDA-MB-231 [29]; 100 nM) was 94.1%. For the same compound, the normalised viability (DU-4475 [20]; 30 nM) was 94.1%, the normalised viability (CAL-148 [21]; 30 nM) was 94.2% and the normalised viability (HDQ-P1 [22]; 30 nM) was 139%. For the same compound, the normalised viability (MFM-223 [23]; 100 nM) was 105%, the normalised viability (BT-549 [24]; 100 nM) was 114% and the normalised viability (HCC1599 [25]; 100 nM) was 87.6%. It also gave a normalised viability (MDA-MB-453 [26]; 30 nM) of 106%.
